{
  "source": "paper PMC12041767",
  "about": "(Journal of immunology (Baltimore, Md. : 1950), 2025)",
  "key": {"HLA-E*01:03": {"molecular_target": "HLA-E*01:03 (Homo sapiens, UniProt P13747)", "assay_type": "binding", "details": "tested at least two times, median, Figure 1"}, "TCR 6": {"tested_on": "TCR 6", "assay": "HLA-E*01:03 tetramer (TM) staining of TCR 6 transduced Jurkat cells", "details": "for Interaction of thermal exchanged HLA-E TM/peptide complex with TCR 6, in words: thermal exchanged HLA-E*01:03 TM staining on Jurkat TCR 6 cells, tested once, Figure 2C-E"}, "TCR KK50.4 [1]": {"tested_on": "TCR KK50.4", "assay": "HLA-E*01:03 tetramer (TM) staining of TCR KK50.4 transduced Jurkat cells", "details": "for Interaction of thermal exchanged HLA-E TM/peptide complex with TCR KK50.4, in words: thermal exchanged HLA-E*01:03 TM staining on Jurkat TCR KK50.4 cells, tested once, Figure 2C"}, "primary NKG2C+ NK cells": {"tested_on": "primary NKG2C+ NK cells", "details": "stimulation with HLA-E/peptide presenting cells, compared to other position 8 variants from clinical CMV isolates; cited from earlier work"}, "NKG2A/CD94 [2]": {"molecular_target": "T1, NKG2A/CD94 (Homo sapiens, UniProt P26715+Q13241)", "T1 sequence (P26715 whole entry)": "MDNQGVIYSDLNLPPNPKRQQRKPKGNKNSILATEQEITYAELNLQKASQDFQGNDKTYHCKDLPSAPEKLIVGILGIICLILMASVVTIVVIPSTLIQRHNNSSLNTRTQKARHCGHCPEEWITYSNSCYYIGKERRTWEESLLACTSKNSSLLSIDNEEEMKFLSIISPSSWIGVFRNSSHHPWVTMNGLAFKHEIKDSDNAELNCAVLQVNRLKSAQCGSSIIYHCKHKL", "T1 sequence (Q13241 whole entry)": "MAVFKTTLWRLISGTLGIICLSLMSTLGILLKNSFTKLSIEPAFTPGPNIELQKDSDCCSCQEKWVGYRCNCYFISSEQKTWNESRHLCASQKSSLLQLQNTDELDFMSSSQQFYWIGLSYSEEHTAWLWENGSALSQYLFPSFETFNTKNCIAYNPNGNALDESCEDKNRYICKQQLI", "details": "cited from earlier work"}, "NKG2A/CD94 [3]": {"molecular_target": "T1, NKG2A/CD94", "assay_type": "binding"}, "TCR KK50.4 [4]": {"tested_on": "TCR KK50.4", "assay_type": "cell-based", "details": "100 μM peptide, median, n=3 with two technical replicates, Figure 3B, C"}, "[5]": {"details": "S/P relative to positive control […] or […]"}, "[6]": {"details": "UV exchange 1 hr at 4°C, ELISA absorbance 450 nm"}, "[7]": {"details": "conventional HLA-E TMs folded with wildtype peptide, Figure 2B"}},
  "note": "Like-named read-outs stand apart in the source and are kept apart here.",
  "data": [
    {"sequence": "VLAPRTRLL [VLAPRTLLL Arg 7]", "values": [
      {"measurement": "Peptide binding affinity for HLA-E*01:03 (signal to positive, S/P, ratio), in words", "setting": "HLA-E*01:03; [5]", "result": "could not bind"}
    ]},
    {"sequence": "VLAPRTPLL [VLAPRTLLL Pro 7]", "values": [
      {"measurement": "Peptide binding affinity for HLA-E*01:03 (signal to positive, S/P, ratio), in words", "setting": "HLA-E*01:03; [5]", "result": "strong binders (key: The S/P thresholds to define binders or strong binders are 0.08 and 0.18, respectively; The S/P thresholds to define binders or strong binders are 0.08 and 0.18, respectively)"}
    ]},
    {"sequence": "VMAPRTLIW", "values": [
      {"measurement": "Interaction of thermal exchanged HLA-E TM/peptide complex with TCR 6, in words", "setting": "TCR 6", "result": "not TCR 6"},
      {"measurement": "Interaction of thermal exchanged HLA-E TM/peptide complex with TCR KK50.4, in words", "setting": "TCR KK50.4 [1]", "result": "recognized by TCR KK50.4"}
    ]},
    {"sequence": "VMAPRTPIL", "values": [
      {"measurement": "Peptide binding affinity for HLA-E*01:03 (signal to positive, S/P, ratio), in words", "setting": "HLA-E*01:03; [6]", "result": "strong binders (The S/P thresholds to define binders or strong binders are 0.08 and 0.18, respectively)"}
    ]},
    {"sequence": "VMAPRTLFL", "values": [
      {"measurement": "CD107a expression and cytokine secretion of primary NKG2C+ NK cells", "setting": "primary NKG2C+ NK cells", "result": "highest level of CD107a expression and cytokine secretion"},
      {"measurement": "Level of NKG2A/CD94 signaling among VL9-peptides", "setting": "NKG2A/CD94 [2]", "result": "highest level of NKG2A/CD94 signaling"}
    ]},
    {"sequence": "VMAARTLIL", "values": [
      {"measurement": "Interaction of thermal exchanged HLA-E TM/peptide complex with TCR KK50.4, in words", "setting": "TCR KK50.4 [1]", "result": "interacted"}
    ]},
    {"sequence": "VLAPRTLLL [reference compound]", "values": [
      {"measurement": "Interaction of conventional HLA-E TM with NKG2A/CD94, in words", "setting": "NKG2A/CD94 [3]", "result": "can interact"},
      {"measurement": "Interaction of conventional HLA-E TM with TCR 6, in words", "setting": "TCR 6; [7]", "result": "can interact"},
      {"measurement": "Peptide binding affinity for HLA-E*01:03 (signal to positive, S/P, ratio), in words", "setting": "HLA-E*01:03; [5]", "result": "high affinity"},
      {"measurement": "Interaction of conventional HLA-E TM with TCR KK50.4, in words", "setting": "TCR KK50.4 [1]; [7]", "result": "could only interact with the HLA-E/[…] complex"}
    ]},
    {"sequence": "VLAPRTDLL [VLAPRTLLL Asp 7]", "values": [
      {"measurement": "Peptide binding affinity for HLA-E*01:03 (signal to positive, S/P, ratio), in words", "setting": "HLA-E*01:03; [5]", "result": "could not bind"}
    ]},
    {"sequence": "VLAPRTLLA [VLAPRTLLL Ala 9]", "values": [
      {"measurement": "Peptide binding affinity for HLA-E*01:03 (signal to positive, S/P, ratio), in words", "setting": "HLA-E*01:03; [5]", "result": "could not bind"}
    ]},
    {"sequence": "VLAPRTLGL [VLAPRTLLL Gly 8]", "values": [
      {"measurement": "Peptide binding affinity for HLA-E*01:03 (signal to positive, S/P, ratio), in words", "setting": "HLA-E*01:03; [5]", "result": "could not bind"}
    ]},
    {"sequence": "VLAPRRLLL [VLAPRTLLL Arg 6]", "values": [
      {"measurement": "Peptide binding affinity for HLA-E*01:03 (signal to positive, S/P, ratio), in words", "setting": "HLA-E*01:03; [5]", "result": "could not bind"}
    ]},
    {"sequence": "VMAPRTLIF", "values": [
      {"measurement": "TCR KK50.4 triple reporter activation, in words", "setting": "TCR KK50.4 [4]", "result": "still induced TCR KK50.4 activation"}
    ]},
    {"sequence": "VMAPRPLIL", "values": [
      {"measurement": "Interaction of thermal exchanged HLA-E TM/peptide complex with TCR 6, in words", "setting": "TCR 6", "result": "interacted"},
      {"measurement": "Peptide binding affinity for HLA-E*01:03 (signal to positive, S/P, ratio), in words", "setting": "HLA-E*01:03; [6]", "result": "strong binders (The S/P thresholds to define binders or strong binders are 0.08 and 0.18, respectively)"}
    ]},
    {"sequence": "VLAPRDLLL [VLAPRTLLL Asp 6]", "values": [
      {"measurement": "Peptide binding affinity for HLA-E*01:03 (signal to positive, S/P, ratio), in words", "setting": "HLA-E*01:03; [5]", "result": "could not bind"}
    ]},
    {"sequence": "VLAPRPLLL [VLAPRTLLL Pro 6]", "values": [
      {"measurement": "Peptide binding affinity for HLA-E*01:03 (signal to positive, S/P, ratio), in words", "setting": "HLA-E*01:03; [5]", "result": "strong binders (key: The S/P thresholds to define binders or strong binders are 0.08 and 0.18, respectively; The S/P thresholds to define binders or strong binders are 0.08 and 0.18, respectively)"}
    ]},
    {"sequence": "VMAPRALIL", "values": [
      {"measurement": "Interaction of thermal exchanged HLA-E TM/peptide complex with TCR 6, in words", "setting": "TCR 6", "result": "interacted"}
    ]}
  ]
}
